From the supplement of paper PMC10307832 come the findings set out here.

Common to all, as to test: relative viability (nuclei count vs DMSO), 5 days (fraction); higher = more cells survive
Compound in the test “Tanzisertib + Pemetrexed”: O[C@H]1CC[C@H](Nc2ncc3nc(Nc4c(F)cc(F)cc4F)n([C@H]4CCOC4)c3n2)CC1 [Tanzisertib] + Nc1nc2[nH]cc(CCc3ccc(C(=O)N[C@@H](CCC(=O)O)C(=O)O)cc3)c2c(=O)[nH]1 [Pemetrexed] (partner 0.2 µM)
The method in brief:
(§1)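 Lung cancer cell lines were seeded in 1536-well plates and dosed by pin tool the next day, with either a single drug or a fixed anchor-drug dose combined with five library-drug doses (not always all listed) spaced in √10 steps. Five days later, one step fixed the cells and stained their nuclei (final 0.05% Triton X-100, 1% formaldehyde, 1 ug/ml Hoechst), and nuclei were counted on 4× images. Relative viability is the nuclei count in treated wells divided by the count in vehicle wells, and each value is the median of duplicate plates.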

Compound in the test “Tanzisertib + Dasatinib”: O[C@H]1CC[C@H](Nc2ncc3nc(Nc4c(F)cc(F)cc4F)n([C@H]4CCOC4)c3n2)CC1 [Tanzisertib] + Cc1nc(Nc2ncc(C(=O)Nc3c(C)cccc3Cl)s2)cc(N2CCN(CCO)CC2)n1 [Dasatinib] (partner 0.075 µM)
The method in brief: as §1

Compound in the test “Tanzisertib + Foretinib”: O[C@H]1CC[C@H](Nc2ncc3nc(Nc4c(F)cc(F)cc4F)n([C@H]4CCOC4)c3n2)CC1 [Tanzisertib] + COc1cc2c(Oc3ccc(NC(=O)C4(C(=O)Nc5ccc(F)cc5)CC4)cc3F)ccnc2cc1OCCCN1CCOCC1 [Foretinib] (partner 0.25 µM)
The method in brief:
as §1

Compound in the test “Tanzisertib + Navitoclax”: O[C@H]1CC[C@H](Nc2ncc3nc(Nc4c(F)cc(F)cc4F)n([C@H]4CCOC4)c3n2)CC1 [Tanzisertib] + CC1(C)CCC(c2ccc(Cl)cc2)=C(CN2CCN(c3ccc(C(=O)NS(=O)(=O)c4ccc(N[C@H](CCN5CCOCC5)CSc5ccccc5)c(S(=O)(=O)C(F)(F)F)c4)cc3)CC2)C1 [Navitoclax] (partner 0.5 µM)
In outline: as §1

With NCI-H522, the relative viability in the test with Tanzisertib + Pemetrexed (first compound 0.08 µM) was determined as 1.04; with Tanzisertib + Pemetrexed (first compound 0.253 µM) it was 1.07; with Tanzisertib + Pemetrexed (first compound 0.8 µM), 0.915; with Tanzisertib + Pemetrexed (first compound 2.53 µM), 1.07; with Tanzisertib + Pemetrexed (first compound 8 µM) it was 1.05; with Tanzisertib + Dasatinib (first compound 0.08 µM), 0.937. The relative viability came out at 0.974 in the test with Tanzisertib + Dasatinib (first compound 0.253 µM), 0.845 with Tanzisertib + Dasatinib (first compound 0.8 µM), 0.855 in the test with Tanzisertib + Dasatinib (first compound 2.53 µM) and 0.884 with Tanzisertib + Dasatinib (first compound 8 µM).
For NCI-H650, the relative viability with Tanzisertib + Pemetrexed (first compound 0.08 µM) came to 0.885; with Tanzisertib + Pemetrexed (first compound 0.253 µM), 1.03; with Tanzisertib + Pemetrexed (first compound 0.8 µM) it was 0.969; with Tanzisertib + Pemetrexed (first compound 2.53 µM), 1.09; with Tanzisertib + Pemetrexed (first compound 8 µM), 0.576; with Tanzisertib + Foretinib (first compound 0.08 µM) it was 0.979. The relative viability in the test with Tanzisertib + Foretinib (first compound 0.253 µM) was found to be 1.07; with Tanzisertib + Foretinib (first compound 0.8 µM), 1.04; with Tanzisertib + Foretinib (first compound 2.53 µM), 1.09; with Tanzisertib + Foretinib (first compound 8 µM) it was 1.08; in the test with Tanzisertib + Dasatinib (first compound 0.08 µM) it was 0.44; with Tanzisertib + Dasatinib (first compound 0.253 µM) it was 0.463. Moreover, the relative viability was 0.443 with Tanzisertib + Dasatinib (first compound 0.8 µM), 0.47 with Tanzisertib + Dasatinib (first compound 2.53 µM) and 0.309 with Tanzisertib + Dasatinib (first compound 8 µM).
Take NCI-H661: the relative viability with Tanzisertib + Pemetrexed (first compound 0.08 µM) is 0.896; in the test with Tanzisertib + Pemetrexed (first compound 0.253 µM), 0.896; with Tanzisertib + Pemetrexed (first compound 0.8 µM) it was 0.872; with Tanzisertib + Pemetrexed (first compound 2.53 µM), 0.919; in the test with Tanzisertib + Pemetrexed (first compound 8 µM) it was 0.913; in the test with Tanzisertib + Foretinib (first compound 0.08 µM) it was 1.07. The relative viability amounted to 0.999 in the test with Tanzisertib + Foretinib (first compound 0.253 µM); 1 with Tanzisertib + Foretinib (first compound 0.8 µM); 1.04 with Tanzisertib + Foretinib (first compound 2.53 µM); 0.995 with Tanzisertib + Foretinib (first compound 8 µM); 1.01 with Tanzisertib + Dasatinib (first compound 0.08 µM); 0.867 with Tanzisertib + Dasatinib (first compound 0.253 µM). Further, the relative viability with Tanzisertib + Dasatinib (first compound 0.8 µM) turned out to be 0.971; in the test with Tanzisertib + Dasatinib (first compound 2.53 µM), 0.785; in the test with Tanzisertib + Dasatinib (first compound 8 µM) it was 0.868.
Regarding NCI-H727, the relative viability amounted to 0.88 in the test with Tanzisertib + Foretinib (first compound 0.08 µM); 1.02 in the test with Tanzisertib + Foretinib (first compound 0.253 µM); 0.662 with Tanzisertib + Foretinib (first compound 0.8 µM); 0.936 with Tanzisertib + Foretinib (first compound 2.53 µM); 0.91 with Tanzisertib + Foretinib (first compound 8 µM); 0.489 with Tanzisertib + Dasatinib (first compound 0.08 µM). The relative viability was 0.286 with Tanzisertib + Dasatinib (first compound 0.253 µM); 0.403 with Tanzisertib + Dasatinib (first compound 0.8 µM); 0.349 in the test with Tanzisertib + Dasatinib (first compound 2.53 µM); 0.271 with Tanzisertib + Dasatinib (first compound 8 µM); 0.377 with Tanzisertib + Navitoclax (first compound 0.08 µM); 0.354 in the test with Tanzisertib + Navitoclax (first compound 0.253 µM). In addition, the relative viability was determined as 0.481 with Tanzisertib + Navitoclax (first compound 0.8 µM), 0.477 in the test with Tanzisertib + Navitoclax (first compound 2.53 µM) and 0.502 with Tanzisertib + Navitoclax (first compound 8 µM).
In the case of NCI-H1299, the relative viability with Tanzisertib + Foretinib (first compound 0.08 µM) amounted to 1.08; with Tanzisertib + Foretinib (first compound 0.253 µM), 1.1; with Tanzisertib + Foretinib (first compound 0.8 µM), 1.09; with Tanzisertib + Foretinib (first compound 2.53 µM) it was 1.15; in the test with Tanzisertib + Foretinib (first compound 8 µM), 1.23; with Tanzisertib + Navitoclax (first compound 0.08 µM), 1.06. For the same cell line, the relative viability in the test with Tanzisertib + Navitoclax (first compound 0.253 µM) came out at 1.09; with Tanzisertib + Navitoclax (first compound 0.8 µM) it was 1.06; with Tanzisertib + Navitoclax (first compound 2.53 µM), 1.08; in the test with Tanzisertib + Navitoclax (first compound 8 µM), 1.12.
As for NCI-H1563, the relative viability with Tanzisertib + Pemetrexed (first compound 0.08 µM) was found to be 0.829; in the test with Tanzisertib + Pemetrexed (first compound 0.253 µM), 0.935; with Tanzisertib + Pemetrexed (first compound 0.8 µM), 0.761; in the test with Tanzisertib + Pemetrexed (first compound 2.53 µM), 0.711; with Tanzisertib + Pemetrexed (first compound 8 µM), 0.619; in the test with Tanzisertib + Foretinib (first compound 0.08 µM) it was 0.983. The relative viability in the test with Tanzisertib + Foretinib (first compound 0.253 µM) is 0.854; in the test with Tanzisertib + Foretinib (first compound 0.8 µM), 0.896; with Tanzisertib + Foretinib (first compound 2.53 µM), 0.96; with Tanzisertib + Foretinib (first compound 8 µM), 0.72; with Tanzisertib + Dasatinib (first compound 0.08 µM), 0.435; with Tanzisertib + Dasatinib (first compound 0.253 µM), 0.479. Further, the relative viability amounted to 0.451 with Tanzisertib + Dasatinib (first compound 0.8 µM), 0.471 with Tanzisertib + Dasatinib (first compound 2.53 µM) and 0.436 with Tanzisertib + Dasatinib (first compound 8 µM).
NCI-H1623: the relative viability with Tanzisertib + Foretinib (first compound 0.08 µM) came to 0.956; with Tanzisertib + Foretinib (first compound 0.253 µM), 0.815; with Tanzisertib + Foretinib (first compound 0.8 µM), 0.912; with Tanzisertib + Foretinib (first compound 2.53 µM) it was 0.834; in the test with Tanzisertib + Foretinib (first compound 8 µM), 0.788; with Tanzisertib + Dasatinib (first compound 0.08 µM), 0.59. Moreover, the relative viability in the test with Tanzisertib + Dasatinib (first compound 0.253 µM) was determined as 0.572; with Tanzisertib + Dasatinib (first compound 0.8 µM) it was 0.608; with Tanzisertib + Dasatinib (first compound 2.53 µM), 0.455; with Tanzisertib + Dasatinib (first compound 8 µM) it was 0.514.
On to NCI-H1648, for which the relative viability with Tanzisertib + Pemetrexed (first compound 0.08 µM) was 0.689; in the test with Tanzisertib + Pemetrexed (first compound 0.253 µM), 0.698; in the test with Tanzisertib + Pemetrexed (first compound 0.8 µM), 0.775; in the test with Tanzisertib + Pemetrexed (first compound 2.53 µM), 0.754; in the test with Tanzisertib + Pemetrexed (first compound 8 µM), 0.735.
In the case of NCI-H1703, the relative viability with Tanzisertib + Foretinib (first compound 0.08 µM) was found to be 0.406; with Tanzisertib + Foretinib (first compound 0.253 µM), 0.371; in the test with Tanzisertib + Foretinib (first compound 0.8 µM), 0.359; with Tanzisertib + Foretinib (first compound 2.53 µM) it was 0.262; in the test with Tanzisertib + Foretinib (first compound 8 µM), 0.261; with Tanzisertib + Navitoclax (first compound 0.08 µM), 1.12. Moreover, the relative viability in the test with Tanzisertib + Navitoclax (first compound 0.253 µM) worked out at 0.837; with Tanzisertib + Navitoclax (first compound 0.8 µM), 1.05; with Tanzisertib + Navitoclax (first compound 2.53 µM) it was 1.03; with Tanzisertib + Navitoclax (first compound 8 µM), 0.927.
For the cell line NCI-H1792, the relative viability in the test with Tanzisertib + Pemetrexed (first compound 0.08 µM) came to 1.2; with Tanzisertib + Pemetrexed (first compound 0.253 µM), 0.694; in the test with Tanzisertib + Pemetrexed (first compound 0.8 µM), 0.876; with Tanzisertib + Pemetrexed (first compound 2.53 µM) it was 0.763; in the test with Tanzisertib + Pemetrexed (first compound 8 µM), 0.625; in the test with Tanzisertib + Dasatinib (first compound 0.08 µM), 0.819. Moreover, the relative viability with Tanzisertib + Dasatinib (first compound 0.253 µM) was found to be 0.685; in the test with Tanzisertib + Dasatinib (first compound 0.8 µM), 0.78; with Tanzisertib + Dasatinib (first compound 2.53 µM), 0.724; with Tanzisertib + Dasatinib (first compound 8 µM) it was 0.552; with Tanzisertib + Navitoclax (first compound 0.08 µM) it was 0.75; with Tanzisertib + Navitoclax (first compound 0.253 µM), 0.777. Moreover, the relative viability came to 0.674 in the test with Tanzisertib + Navitoclax (first compound 0.8 µM), 0.553 in the test with Tanzisertib + Navitoclax (first compound 2.53 µM) and 0.598 in the test with Tanzisertib + Navitoclax (first compound 8 µM).
On to NCI-H2342, for which the relative viability with Tanzisertib + Pemetrexed (first compound 0.08 µM) is 0.867; with Tanzisertib + Pemetrexed (first compound 0.253 µM) it was 0.749; in the test with Tanzisertib + Pemetrexed (first compound 0.8 µM), 0.768; with Tanzisertib + Pemetrexed (first compound 2.53 µM), 0.708; in the test with Tanzisertib + Pemetrexed (first compound 8 µM), 0.668; in the test with Tanzisertib + Foretinib (first compound 0.08 µM) it was 1.21. Also, the relative viability in the test with Tanzisertib + Foretinib (first compound 0.253 µM) was 0.977; with Tanzisertib + Foretinib (first compound 0.8 µM) it was 1.03; in the test with Tanzisertib + Foretinib (first compound 2.53 µM) it was 0.982; with Tanzisertib + Foretinib (first compound 8 µM), 1.08; in the test with Tanzisertib + Dasatinib (first compound 0.08 µM), 0.32; in the test with Tanzisertib + Dasatinib (first compound 0.253 µM), 0.311. Also, the relative viability with Tanzisertib + Dasatinib (first compound 0.8 µM) amounted to 0.308; with Tanzisertib + Dasatinib (first compound 2.53 µM) it was 0.283; in the test with Tanzisertib + Dasatinib (first compound 8 µM), 0.32.
As for SW 900, the relative viability with Tanzisertib + Pemetrexed (first compound 0.253 µM) is 0.51; with Tanzisertib + Pemetrexed (first compound 0.8 µM), 0.501; with Tanzisertib + Pemetrexed (first compound 2.53 µM), 0.451; in the test with Tanzisertib + Pemetrexed (first compound 8 µM), 0.464; in the test with Tanzisertib + Foretinib (first compound 0.08 µM), 1.02; with Tanzisertib + Foretinib (first compound 0.253 µM), 0.784. The relative viability was found to be 1.07 with Tanzisertib + Foretinib (first compound 0.8 µM); 0.924 with Tanzisertib + Foretinib (first compound 2.53 µM); 0.787 with Tanzisertib + Foretinib (first compound 8 µM); 0.692 in the test with Tanzisertib + Dasatinib (first compound 0.08 µM); 0.574 in the test with Tanzisertib + Dasatinib (first compound 0.253 µM); 0.585 in the test with Tanzisertib + Dasatinib (first compound 0.8 µM). In addition, the relative viability came out at 0.621 with Tanzisertib + Dasatinib (first compound 2.53 µM) and 0.496 with Tanzisertib + Dasatinib (first compound 8 µM).
